# Source: patent US10392422B2, “Macrocyclic broad spectrum antibiotics” (priority 2014, dated 2019)
# Read-outs that look alike come from different tables or passages of the source.
# Legend:
# Assay in all cases: MIC, broth micro-dilution technique (CLSI)
# [1] = system: Escherichia coli MC4100 harboring the IMP4213; type: cell-based; details: Escherichia coli, 22 h, read-out: MIC (μg/mL) E. coli, Table 1 protocol: serial 2-fold dilutions starting from 64 μg/ml; 35° C., 22 hours
# Outline: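 CLSI broth microdilution in cation-adjusted Mueller Hinton broth with 0.002% v/v Tween-80. Compounds were serially 2-fold diluted over 10 concentrations from 64 μg/ml, or from 4 μg/mL in a modified protocol; inoculum at final OD600 0.0005, incubated 35° C for 22 hours.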
# [2] = system: Methicillin Resistant Staphylococcus aureus strain USA 300 (NRS384); type: cell-based; details: Staphylococcus aureus, 22 h, read-out: MIC (μg/mL) S. aureus
# Outline: (§1)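 Cation-adjusted MHB + 0.002% Tween-80; 10-point 2-fold series starting 64 μg/ml (modified protocol: 4 μg/mL). Final inoculum OD600 0.0005; 35° C, 22 h. MIC per CLSI M07-A8 broth microdilution.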
# [3] = system: MRSA COL (NRS100); type: cell-based, Staphylococcus aureus; details: Staphylococcus aureus, 22 h, read-out: MIC (μg/mL) (COL)
# Outline: as §1
# [4] = Table 1 protocol: serial 2-fold dilutions starting from 64 μg/ml, 35° C., 22 hours
structure (smiles),measurement,setting,value
CC(=O)[C@H](C)NC(=O)[C@@H]1Cc2ccc(OCC(=O)O)c(c2)-c2cc(ccc2O)[C@H](N(C)C(=O)[C@H](CCCCN)NC(=O)c2ccc(-c3ccc(Cl)cc3)cc2)C(=O)N[C@@H](C)C(=O)N1 [Compound 207],MIC,[1],32 µg/mL
same,MIC,[2]; [4],32 µg/mL
same,MIC,[3]; [4],6 µg/mL
CC(=O)[C@H](C)NC(=O)[C@@H]1Cc2ccc(OCC(=O)O)c(c2)-c2cc(ccc2OCCN)[C@H](N(C)C(=O)[C@H](CCCCN)NC(=O)c2ccc(-c3ccc(Cl)cc3)cc2)C(=O)N[C@@H](C)C(=O)N1 [Compound 208],MIC,[1],16 µg/mL
same,MIC,[2]; [4],23 µg/mL
same,MIC,[3]; [4],6 µg/mL
CC(=O)[C@H](C)NC(=O)[C@@H]1Cc2ccc(OCCN)c(c2)-c2cc(ccc2OCCN)[C@H](N(C)C(=O)[C@H](CCCCN)NC(=O)c2ccc(-c3ccc(Cl)cc3)cc2)C(=O)N[C@@H](C)C(=O)N1 [Compound 209],MIC,[1],4 µg/mL
same,MIC,[2]; [4],0.5 µg/mL
same,MIC,[3]; [4],0.13 µg/mL
CC(=O)[C@H](C)NC(=O)[C@@H]1Cc2ccc(O)c(c2)-c2cc(cc(CN)c2O)[C@H](N(C)C(=O)[C@H](CCCCN)NC(=O)c2ccc(-c3ccccc3)cc2)C(=O)N[C@@H](C)C(=O)N1 [Compound 210],MIC,[1],32 µg/mL
same,MIC,[2]; [4],32 µg/mL
same,MIC,[3]; [4],4 µg/mL
C[C@@H]1NC(=O)[C@@H](N(C)C(=O)[C@H](CCCCN)NC(=O)c2ccc(-c3ccc(Cl)cc3)cc2)c2cc(c3oc(CN)cc3c2)-c2cc(ccc2O)C[C@@H](C(=O)O)NC1=O [Compound 211],MIC,[1],2 µg/mL
same,MIC,[2],11 µg/mL
same,MIC,[3],2 µg/mL
CC(=O)[C@H](C)NC(=O)[C@@H]1Cc2ccc(O)c(c2)-c2cc(cc3cc(CN)oc23)[C@H](N(C)C(=O)[C@H](CCCCN)NC(=O)c2ccc(-c3ccc(Cl)cc3)cc2)C(=O)N[C@@H](C)C(=O)N1 [Compound 212],MIC,[1],5.7 µg/mL
same,MIC,[2]; [4],2.5 µg/mL
same,MIC,[3]; [4],0.5 µg/mL
CC(=O)[C@H](C)NC(=O)[C@@H]1Cc2ccc(O)c(c2)-c2cc(cc(CCCN)c2OCCN)[C@H](N(C)C(=O)[C@H](CCCCN)NC(=O)c2ccc(-c3ccccc3)cc2)C(=O)N[C@@H](C)C(=O)N1 [Compound 213],MIC,[1],4 µg/mL
same,MIC,[2]; [4],16 µg/mL
same,MIC,[3]; [4],2 µg/mL
CCCCCCCCCCNCCS(=O)(=O)N[C@@H](CCCCN)C(=O)N(C)[C@@H]1C(=O)N[C@@H](C)C(=O)N[C@H](C(=O)O)Cc2ccc(O)c(c2)-c2cc1ccc2O [Compound 214],MIC,[1],64 µg/mL
same,MIC,[2],2.8 µg/mL
same,MIC,[3],0.75 µg/mL
CCCCCCCCCCNCCS(=O)(=O)N[C@@H](CCCCN)C(=O)N(C)[C@@H]1C(=O)N[C@@H](C)C(=O)N[C@H](C(=O)N[C@@H](C)C(=O)N2CCC[C@H]2C(N)=O)Cc2ccc(O)c(c2)-c2cc1ccc2O [Compound 215],MIC,[1],> 64 µg/mL
same,MIC,[2]; [4],0.5 µg/mL
same,MIC,[3]; [4],0.25 µg/mL
CCCCCCCCCCNCCS(=O)(=O)N[C@@H](CCCCN)C(=O)N(C)[C@@H]1C(=O)N[C@@H](C)C(=O)N[C@H](C(=O)N[C@@H](C)C(C)=O)Cc2ccc(O)c(c2)-c2cc1ccc2OCCN [Compound 216],MIC,[1],64 µg/mL
same,MIC,[2]; [4],0.13 µg/mL
same,MIC,[3]; [4],0.063 µg/mL
CCCCCCCCCNCCCS(=O)(=O)N[C@@H](CCCCN)C(=O)N(C)[C@@H]1C(=O)N[C@@H](C)C(=O)N[C@H](C(=O)N[C@@H](C)C(C)=O)Cc2ccc(O)c(c2)-c2cc1ccc2O [Compound 217],MIC,[1],> 64 µg/mL
same,MIC,[2]; [4],2 µg/mL
same,MIC,[3]; [4],0.75 µg/mL
CCCCCCCCCCNCCS(=O)(=O)N[C@@H](CCN)C(=O)N(C)[C@@H]1C(=O)N[C@@H](C)C(=O)N[C@H](C(=O)N[C@@H](C)C(C)=O)Cc2ccc(O)c(c2)-c2cc1ccc2O [Compound 218],MIC,[1],> 64 µg/mL
same,MIC,[2],0.35 µg/mL
same,MIC,[3],0.13 µg/mL
CCCCCCCCCCNCCS(=O)(=O)N[C@@H](CCCN)C(=O)N(C)[C@@H]1C(=O)N[C@@H](C)C(=O)N[C@H](C(=O)N[C@@H](C)C(C)=O)Cc2ccc(O)c(c2)-c2cc1ccc2O [Compound 219],MIC,[1],> 64 µg/mL
same,MIC,[2],0.35 µg/mL
same,MIC,[3],0.13 µg/mL
CCCCCCCCCCCCS(=O)(=O)N[C@@H](CCCCN)C(=O)N(C)[C@@H]1C(=O)N[C@@H](C)C(=O)N[C@H](C(=O)O)Cc2ccc(O)c(c2)-c2cc1ccc2O [Compound 220],MIC,[1],16 µg/mL
same,MIC,[2],2 µg/mL
same,MIC,[3],0.33 µg/mL
CCCCCCCCCCCCS(=O)(=O)N[C@@H](CCCCN)C(=O)N(C)[C@@H]1C(=O)N[C@@H](C)C(=O)N[C@H](C(=O)N[C@@H](C)C(C)=O)Cc2ccc(O)c(c2)-c2cc1ccc2O [Compound 221],MIC,[1],45 µg/mL
same,MIC,[2]; [4],0.5 µg/mL
same,MIC,[3]; [4],0.13 µg/mL
CCCCCCCCCCS(=O)(=O)N[C@@H](CCCCN)C(=O)N(C)[C@@H]1C(=O)N[C@@H](C)C(=O)N[C@H](C(=O)O)Cc2ccc(O)c(c2)-c2cc1ccc2O [Compound 222],MIC,[1],> 64 µg/mL
same,MIC,[2],16 µg/mL
same,MIC,[3],3 µg/mL
CC(=O)[C@H](C)NC(=O)[C@@H]1Cc2ccc(O)c(c2)-c2cc(ccc2O)[C@H](N(C)C(=O)[C@H](CCCCN)NS(=O)(=O)c2ccc(-c3ccc(Cl)cc3)cc2)C(=O)N[C@@H](C)C(=O)N1 [Compound 223],MIC,[1],32 µg/mL
same,MIC,[2]; [4],0.71 µg/mL
same,MIC,[3]; [4],2 µg/mL
CCCCCCCCCCS(=O)(=O)N[C@@H](CCCCN)C(=O)N(C)[C@@H]1C(=O)N[C@@H](C)C(=O)N[C@H](C(=O)N[C@@H](C)C(=O)N2CCC[C@H]2C(N)=O)Cc2ccc(O)c(c2)-c2cc1ccc2O [Compound 224],MIC,[1],64 µg/mL
same,MIC,[2]; [4],16 µg/mL
same,MIC,[3]; [4],0.13 µg/mL
C[C@@H]1NC(=O)[C@@H](N(C)C(=O)[C@H](CCCCN)NS(=O)(=O)c2ccc(-c3ccc(Cl)cc3)cc2)c2ccc(O)c(c2)-c2cc(ccc2O)C[C@@H](C(=O)N[C@@H](C)C(=O)N2CCC[C@H]2C(N)=O)NC1=O [Compound 225],MIC,[1],> 64 µg/mL
same,MIC,[2]; [4],23 µg/mL
same,MIC,[3]; [4],6 µg/mL
CC(=O)[C@H](C)NC(=O)[C@@H]1Cc2ccc(O)c(c2)-c2cc(cc(C#CCN)c2OCCN)[C@H](N(C)C(=O)[C@H](CCCCN)NC(=O)c2ccc(-c3ccc(Cl)cc3)cc2)C(=O)N[C@@H](C)C(=O)N1 [Compound 226],MIC,[1],4 µg/mL
same,MIC,[2]; [4],4 µg/mL
same,MIC,[3]; [4],0.25 µg/mL
C[C@@H]1NC(=O)[C@@H](N(C)C(=O)[C@H](CCCCN)NC(=O)c2ccc(-c3ccc(Cl)cc3)cc2)c2ccc(O)c(c2)-c2cc(ccc2O)C[C@@H](C(=O)N[C@@H](C)C(=O)C(=O)Nc2ccn[nH]2)NC1=O [Compound 227],MIC,[1],> 64 µg/mL
same,MIC,[2]; [4],12 µg/mL
same,MIC,[3]; [4],2 µg/mL
C[C@@H]1NC(=O)[C@@H](N(C)C(=O)[C@H](CCCCN)NC(=O)c2ccc(-c3ccc(Cl)cc3)cc2)c2ccc(O)c(c2)-c2cc(ccc2O)C[C@@H](C(=O)N[C@@H](C)C(=O)C(F)(F)C(N)=O)NC1=O [Compound 228],MIC,[1],15 µg/mL
same,MIC,[2]; [4],5.3 µg/mL
same,MIC,[3]; [4],2 µg/mL
C[C@@H]1NC(=O)[C@@H](N(C)C(=O)[C@H](CCCCN)NC(=O)c2ccc(-c3ccc(Cl)cc3)cc2)c2ccc(O)c(c2)-c2cc(ccc2O)C[C@@H](C(=O)N[C@@H](C)C(=O)c2c[nH]cn2)NC1=O [Compound 229],MIC,[1],24 µg/mL
same,MIC,[2]; [4],4 µg/mL
same,MIC,[3]; [4],1 µg/mL
C[C@@H]1NC(=O)[C@@H](N(C)C(=O)[C@H](CCCCN)NC(=O)c2ccc(-c3ccc(Cl)cc3)cc2)c2ccc(O)c(c2)-c2cc(ccc2O)C[C@@H](C(=O)N[C@@H](C)C(=O)c2c[nH]nn2)NC1=O [Compound 230],MIC,[1],> 64 µg/mL
same,MIC,[2]; [4],64 µg/mL
same,MIC,[3]; [4],8 µg/mL
C[C@@H]1NC(=O)[C@@H](N(C)C(=O)[C@H](CCCCN)NC(=O)c2ccc(-c3ccc(Cl)cc3)cc2)c2ccc(O)c(c2)-c2cc(ccc2O)C[C@@H](C(=O)N[C@@H](C)C(=O)c2nnc[nH]2)NC1=O [Compound 231],MIC,[1],8 µg/mL
same,MIC,[2]; [4],6 µg/mL
same,MIC,[3]; [4],1 µg/mL
